Measurements reported in US20220144854A1, “MACROCYCLIC COMPOUNDS” (ZENO MANAGEMENT, INC., priority 2019, published 2022).

These compounds were tested on NCI-H929 (ATCC CRL-9068) cells (assay: NCI-H929 cell proliferation assay (CellTiter-Glo)). Settings: 72 h of compound treatment.
Format: cell-based
Method: Cell proliferation was measured using the CellTiter-Glo® Luminescent Cell Viability Assay. The assay involved the addition of a single reagent (CellTiter-Glo® Reagent) directly to cells cultured in serum-supplemented medium.
Each compound evaluated was prepared as a DMSO stock solution (10 mM). Compounds were tested in duplicate on each plate, with a 10-point serial dilution curve (1:3 dilution). Compound treatment ([…]) was added from the compound dilution plate to the cell plate. The highest compound concentration was 10 μM (final), with a 0.1% final DMSO concentration. Plates were then incubated at 37° C., 5% CO2. After 72 h of compound treatment, cell plates were equilibrated at rt for approximately 30 mins. An equi-volume amount of CellTiter-Glo® Reagent (40 μL) was added to each well. Plates were mixed for 2 mins on an orbital shaker to induce cell lysis and then incubated at rt for 10 mins to stabilize the luminescent signal. Luminescence was recorded using an Envision plate reader according to CellTiter-Glo protocol. IC50 of each compound was calculated using GraphPad Prism by nonlinear regression analysis.

| Compound | IC50 [µM] |
| --- | --- |
| COc1ccc(Cn2nc3c(c2C)-c2c(Cl)ccc4c(c(C(=O)O)n(C)c24)CCCOc2cc(cc4ccccc24)SCc2cc(nn2C(C)C)CSC3)cc1 (single isomer, unassigned) [Example 8A, (Z)-1^6-Chloro-6^1-isopropyl-2^1-(4-methoxybenzyl)-1^1,2^5-dimethyl-1^1H,2^1H,6^1H-10-oxa-4,8-dithia-1(7,3)-indola-2(4,3),6(3,5)-dipyrazola-9(3,1)-naphthalenacyclotridecaphane-1^2-carboxylic acid] | > 1 |
| COc1ccc(Cn2nc3c(c2C)-c2c(Cl)ccc4c(c(C(=O)O)n(C)c24)CCCOc2cc(cc4ccccc24)SCc2cc(nn2C(C)C)CSC3)cc1 (single isomer, unassigned) [Example 8B, (Z)-1^6-Chloro-6^1-isopropyl-2^1-(4-methoxybenzyl)-1^1,2^5-dimethyl-1^1H,2^1H,6^1H-10-oxa-4,8-dithia-1(7,3)-indola-2(4,3),6(3,5)-dipyrazola-9(3,1)-naphthalenacyclotridecaphane-1^2-carboxylic acid] | 0.1 to 1 |
| Cc1nn(C)c2c1-c1c(F)ccc3c(c(C(=O)O)n(C)c13)CCCOc1cc(cc3ccccc13)SCc1cc(nn1C(C)C)CSC2 (single isomer, unassigned) [Example 16B, (Z)-1^6-Fluoro-6^1-isopropyl-1^1,2^1,2^3-trimethyl-1^1H,2^1H,6^1H-10-oxa-4,8-dithia-1(7,3)-indola-2(4,5),6(3,5)-dipyrazola-9(3,1)-naphthalenacyclotridecaphane-1^2-carboxylic acid] | > 1 |
| Cc1nn(C)c2c1-c1c(F)ccc3c(c(C(=O)O)n(C)c13)CCCOc1cc(cc3ccccc13)SCc1cc(nn1CC(C)C)CSC2 (single isomer, unassigned) [Example 17B, (Z)-1^6-Fluoro-6^1-isobutyl-1^1,2^1,2^3-trimethyl-1^1H,2^1H,6^1H-10-oxa-4,8-dithia-1(7,3)-indola-2(4,5),6(3,5)-dipyrazola-9(3,1)-naphthalenacyclotridecaphane-1^2-carboxylic acid] | 0.1 to 1 |
| Cc1nn(C)c2c1-c1c(Cl)ccc3c(c(C(=O)O)n(C)c13)CCCOc1cc(cc3ccccc13)SCc1cc(nn1C)CSC2 (single isomer, unassigned) [Example 19A, (Z)-1^6-Chloro-1^1,2^1,2^3,6^1-tetramethyl-1^1H,2^1H,6^1H-10-oxa-4,8-dithia-1(7,3)-indola-2(4,5),6(3,5)-dipyrazola-9(3,1)-naphthalenacyclotridecaphane-1^2-carboxylic acid] | > 1 |
| Cc1nn(C)c2c1-c1c(Cl)ccc3c(c(C(=O)O)n(C)c13)CCCOc1cc(cc3ccccc13)SCc1cc(nn1C)CSC2 (single isomer, unassigned) [Example 19B, (Z)-1^6-Chloro-1^1,2^1,2^3,6^1-tetramethyl-1^1H,2^1H,6^1H-10-oxa-4,8-dithia-1(7,3)-indola-2(4,5),6(3,5)-dipyrazola-9(3,1)-naphthalenacyclotridecaphane-1^2-carboxylic acid] | < 0.1 |
| Cn1nc2cc1CCc1cc(c3ccccc3c1)OCCCc1c(C(=O)O)n(C)c3c(c(Cl)ccc13)-c1c(nn3c1CCCC3)CNC2 (single isomer, unassigned) [Example 27A, (Z)-1^6-Chloro-1^1,6^1-dimethyl-2^4,2^5,2^6,2^7-tetrahydro-1^1H,6^1H-10-oxa-4-aza-2(3,2)-pyrazolo[1,5-a]pyridina-1(7,3)-indola-6(3,5)-pyrazola-9(3,1)-naphthalenacyclotridecaphane-1^2-carboxylic acid] | 0.1 to 1 |
| Cn1nc2cc1CCc1cc(c3ccccc3c1)OCCCc1c(C(=O)O)n(C)c3c(c(Cl)ccc13)-c1c(nn3c1CCCC3)CNC2 (single isomer, unassigned) [Example 27B, (Z)-1^6-Chloro-1^1,6^1-dimethyl-2^4,2^5,2^6,2^7-tetrahydro-1^1H,6^1H-10-oxa-4-aza-2(3,2)-pyrazolo[1,5-a]pyridina-1(7,3)-indola-6(3,5)-pyrazola-9(3,1)-naphthalenacyclotridecaphane-1^2-carboxylic acid] | > 1 |
| Cc1c2c(nn1C)CSCc1cc([nH]n1)CSc1cc(c3ccccc3c1)OCCCc1c(C(=O)O)n(C)c3c-2c(Cl)ccc13 [Example 11A, (Z)-1^6-Chloro-1^1,2^1,2^5-trimethyl-1^1H,2^1H,6^1H-10-oxa-4,8-dithia-1(7,3)-indola-2(4,3),6(3,5)-dipyrazola-9(3,1)-naphthalenacyclotridecaphane-1^2-carboxylic acid] | > 1 |
| Cc1c2c(nn1C)CSCc1cc(n(C)n1)CSc1cc(c3cc(Cl)ccc3c1)OCCCc1c(C(=O)O)n(C)c3c-2c(Cl)ccc13 [Example 12A, (Z)-1^6,9^7-Dichloro-1^1,2^1,2^5,6^1-tetramethyl-1^1H,2^1H,6^1H-10-oxa-4,8-dithia-1(7,3)-indola-2(4,3),6(3,5)-dipyrazola-9(3,1)-naphthalenacyclotridecaphane-1^2-carboxylic acid] | 0.1 to 1 |
| Cc1c2c(nn1C)CSCc1cc(n(C)n1)CSc1cc(c3ccccc3c1)OCCCc1c(C(=O)O)n(C)c3c-2c(Cl)cc(Cl)c13 [Example 13A, (Z)-1^4,1^6-dichloro-1^1,2^1,2^5,6^1-tetramethyl-1^1H,2^1H,6^1H-10-oxa-4,8-dithia-1(7,3)-indola-2(4,3),6(3,5)-dipyrazola-9(3,1)-naphthalenacyclotridecaphane-1^2-carboxylic acid] | > 1 |
| Cc1c2c(nn1C)CSCc1cc(n(C)n1)CSc1cc(c3ccccc3c1)OCCCc1c(C(=O)O)n(C)c3c-2c(F)ccc13 [Example 14B, (Z)-1^6-Fluoro-1^1,2^1,2^5,6^1-tetramethyl-1^1H,2^1H,6^1H-10-oxa-4,8-dithia-1(7,3)-indola-2(4,3),6(3,5)-dipyrazola-9(3,1)-naphthalenacyclotridecaphane-1^2-carboxylic acid] | > 1 |
| Cn1nc2cc1CCc1cc(c3ccccc3c1)OCCCc1c(C(=O)O)n(C)c3c(c(Cl)ccc13)-c1c(nn3c1CCC3)CNC2 [Example 26B, (Z)-1^6-chloro-1^1,6^1-dimethyl-2^5,2^6-dihydro-1^1H,2^4H,6^1H-10-oxa-4-aza-1(7,3)-indola-2(3,2)-pyrrolo[1,2-b]pyrazola-6(3,5)-pyrazola-9(3,1)-naphthalenacyclotridecaphane-1^2-carboxylic acid] | > 1 |
| (Z)-1^6-Fluoro-6^1-isobutyl-1^1,2^1,2^3-trimethyl-1^1H,2^1H,6^1H-10-oxa-4,8-dithia-1(7,3)-indola-2(4,5),6(3,5)-dipyrazola-9(3,1)-naphthalenacyclotridecaphane-1^2-carboxylic acid [Example 18B] | 0.1 to 1 |

Same assay, conditions: Homo sapiens, NCI-H929, 72 h, 72 h of compound treatment

| Compound | IC50 [µM] |
| --- | --- |
| CO[C@H]1/C=C/C[C@H](C)[C@@H](C)S(=O)(=O)NC(=O)c2ccc3c(c2)N(C[C@@H]2CC[C@H]21)C[C@@]1(CCCc2cc(Cl)ccc21)CO3 [AMG176, reference compound] | 0.1 to 1 |
| Cc1c2c(nn1C)CSCc1cc(n(C)n1)CSc1cc(c3ccccc3c1)OCCCc1c(C(=O)O)n(C)c3c-2c(Cl)ccc13 [AZD5991, reference compound] | < 0.1 |
| Cc1[nH]nc2c1-c1c(Cl)ccc3c(c(C(=O)O)n(C)c13)CCCOc1cc(cc3ccccc13)SCc1cc(nn1C(C)C)CSC2 [Example 9B, (Z)-1^6-Chloro-6^1-isopropyl-1^1,2^5-dimethyl-1^1H,2^1H,6^1H-10-oxa-4,8-dithia-1(7,3)-indola-2(4,3),6(3,5)-dipyrazola-9(3,1)-naphthalenacyclotridecaphane-1^2-carboxylic acid] | > 1 |
| Cc1nn(C23CC(C2)C3)c2c1-c1c(Cl)ccc3c(c(C(=O)O)n(C)c13)CCCOc1cc(cc3ccccc13)SCc1cc(n[nH]1)CSC2 [Example 21A, (Z)-2^1-(Bicyclo[1.1.1]pentan-1-yl)-1^6-chloro-1^1,2^3-dimethyl-1^1H,2^1H,6^1H-10-oxa-4,8-dithia-1(7,3)-indola-2(4,5),6(3,5)-dipyrazola-9(3,1)-naphthalenacyclotridecaphane-1^2-carboxylic acid] | > 1 |
| Cn1nc2cc1CSc1cc(c3ccccc3c1)OCCCc1c(C(=O)O)n(C)c3c(c(Cl)ccc13)-c1c(nn3c1CNCC3)CSC2 [Example 23B, (Z)-1^6-Chloro-1^1,6^1-dimethyl-2^4,2^5,2^6,2^7-tetrahydro-1^1H,6^1H-10-oxa-4,8-dithia-2(3,2)-pyrazolo[1,5-a]pyrazina-1(7,3)-indola-6(3,5)-pyrazola-9(3,1)-naphthalenacyclotridecaphane-1^2-carboxylic acid] | 0.1 to 1 |
| CC(=O)N1CCn2nc3c(c2C1)-c1c(Cl)ccc2c(c(C(=O)O)n(C)c12)CCCOc1cc(cc2ccccc12)SCc1cc(nn1C)CSC3 [Example 24A, (Z)-2^5-Acetyl-1^6-chloro-1^1,6^1-dimethyl-2^4,2^5,2^6,2^7-tetrahydro-1^1H,6^1H-10-oxa-4,8-dithia-2(3,2)-pyrazolo[1,5-a]pyrazina-1(7,3)-indola-6(3,5)-pyrazola-9(3,1)-naphthalenacyclotridecaphane-1^2-carboxylic acid] | 0.1 to 1 |
| CN1CCn2nc3c(c2C1)-c1c(Cl)ccc2c(c(C(=O)O)n(C)c12)CCCOc1cc(cc2ccccc12)SCc1cc(nn1C)CSC3 [Example 25A, (Z)-1^6-chloro-1^1,2^5,6^1-trimethyl-2^4,2^5,2^6,2^7-tetrahydro-1^1H,6^1H-10-oxa-4,8-dithia-2(3,2)-pyrazolo[1,5-a]pyrazina-1(7,3)-indola-6(3,5)-pyrazola-9(3,1)-naphthalenacyclotridecaphane-1^2-carboxylic acid] | 0.1 to 1 |
| Cn1nc2cc1CSc1cc(c3ccccc3c1)OCCCc1c(C(=O)O)n(C)c3c(c(Cl)ccc13)-c1c(nn3c1CCC3)CNC2 [Example 26A] | 0.1 to 1 |
